Entries after “also recorded” stand apart in the source; their conditions may differ.
Tests used:
white rat retina explant = test: Retinal nerve cell protection efficiency test on low oxygen stimulation (retinal explant culture); type: cell-based; settings: hypoxic chamber 30 min, 1 μM compound, cultivated 3 days
Method: A white rat retina was cultivated overnight under explant culture conditions and then, damaged with low oxygen in a hypoxic chamber for 30 min., and cultivated for 3 days with or without being treated with compound 2 of 1 μM, and after the cultivation, the obtained retinal explants were stained and observed using a microscope.

[1] = test system: human retinal pigment epithelial cell line ARPE-19; test: Protection efficiency test of retinal pigment epithelial cell (NaIO3-induced apoptosis, MTT assay); type: cell-based; settings: 10 mM NaIO3 then 1 μM compound
Method: A human retinal pigment epithelial cell line ARPE-19 was treated with 10 mM of NaIO3, which is a retinal pigment epithelial cell apoptosis inducing agent, to induce apoptosis and then, it was treated with compound 2 of the invention, that is, (5-(1,1-dioxo-thiomorpholine-4-yl)methyl-2-phenyl-1H-indole-7-yl)-(1-methanesulfonyl-piperidine-4-yl)-amine (Enzo Life Sciences, Inc.) of 1 μM, and the compound treatment group and the non-treatment group were analyzed about their apoptosis degree using an MTT assay and survived cells were comparatively analyzed.

[2] = test system: MNU (N-methyl-N-nitrosourea)-induced retinal degeneration models; test: Efficiency test in MNU-induced retinal degeneration animal model; type: in vivo, Sprague-Dawley rats
Method: The compounds of formula (1) were applied to retinal degeneration which is hard to cure or incurable to evaluate their effects. For this, 3 250-g Sprague-Dawley rats were prepared as a test animal, and injected with 75 mg/kg of N-methyl-N-nitrosourea (MNU) via an intraperitoneal route to induce retinal degeneration, thereby to produce retinal degeneration models. At 30 min. after the retinal degeneration induction, 10 μl of compound 1, that is, (tetrahydropyran-4-ylmethyl)-[2-phenyl-5-(1,1-dioxo-thiomorpholine-4-yl)methyl-1H-indole-7-yl]amine) (KDR Biotech. Co., Ltd., Seoul, Korea) of 50 μM and a physiological saline was injected into the vitreous body of the experimental group and the control group, respectively and then, the same medicines were injected via the same methods after 72 hours of the retinal degeneration induction. To evaluate the healing effects of retinal degeneration in the experimental group and the control group, on the 5th day of the retinal degeneration induction, the animals were anesthetized using 8% chloral hydrate (0.5 mg/kg) and subjected to electroretinogram (ERG) test (UTAS-2000; LKC Technologies, USA), in which scotopic response was recorded as a single flash response having a strength of 0.9 log (cd s) m^−2 or higher. In the meantime, for the histological evaluation of the experimental group and the control group, their eyeballs were extracted from the animals which completed the electroretinogram test on the 5th day of the retinal degeneration induction to produce eyecups, and then they were embedded in wax to produce 5-μm fragments, which were then stained with Hematoxylin & Eosin and observed using a microscope.

corneal wound models = test: Corneal wound healing effect test (corneal epithelium removal model); type: in vivo, New Zealand white rabbits
Method: It was examined whether the compounds of formula (1) show clinically stable corneal wound healing effects in ophthalmologic surgery such as LRP (laser reversal of presbyopia), LASIK (laser assisted in-situ keratomileusis) and LASEK (laser assisted sub-epithelial keratomileusis). For this, 16 New Zealand white rabbits of 2.0˜2.5 kg were prepared as test animals, anesthetized via intramuscular injection with 15 mg/kg of Zoletil and 5 mg/kg of Xylazine, and then their corneal epitheliums with diameters of 10-12 mm or so were removed using a surgery blade (No. 15) and a rotary epithelial scrubber to produce corneal wound models. At 30 min. after the above-mentioned surgery, two drops of compound 1, that is, (tetrahydropyran-4-ylmethyl)-[2-phenyl-5-(1,1-dioxo-thiomorpholine-4-yl)methyl-1H-indole-7-yl]amine) (KDR Biotech. Co., Ltd., Seoul, Korea) of 50 μM were applied to the experimental group and two drops of a physiological saline were applied to the control group and then, they wore contact lenses, and one drop of the same medicines was applied at 12-hour intervals. To measure a wound area in the experimental group and the control group, their corneal surfaces were stained with Fluorescin using Fluorescin (Haag-Streit International, Switzerland) strips and their diameters were measured using a microcaliper at 24-hour intervals. In the meantime, for the histological evaluation of the experimental group and the control group, they were anesthetized with 25% urethane on the first, second and third day to extract their eyeballs and then, their anterior eye parts including cornea were embedded in wax (Polyscience, USA) to produce 5-μm fragments, which were then stained with Hematoxylin & Eosin and observed using a microscope.

[3] = 10 μl of 50 μM intravitreal at 30 min and 72 hours, ERG on 5th day

Compound	outer nuclear layer (ONL) and inner nuclear layer (INL) of retinal explant after low oxygen damage (white rat retina explant)	survived cells (MTT assay) in comparison with control group [1]	ERG response higher than the control group [2, 3] [%]	electroretinogram a- and b-wave response compared to control group [2, 3]	retinal tissue fragments stained with Hematoxylin & Eosin (histology) ([2]; 10 μl of 50 μM intravitreal, 5th day, control showed severe retinal degeneration)	time until corneal wound healed (Fluorescin stain) (corneal wound models; 50 μM eye drops at 12-hour intervals, saline control healed on the 4th to 5th day) [days]	healing effect on damaged corneal area (fluorescin staining) in comparison with control group (corneal wound models; 50 μM eye drops, damaged areas right after wound induction and on the third day)	corneal epithelium in Hematoxylin & Eosin stained corneal tissue fragments (corneal wound models; 50 μM eye drops, third day of drug treatment, control epithelium remained damaged)
CS(=O)(=O)N1CCC(Nc2cc(CN3CCS(=O)(=O)CC3)cc3cc(-c4ccccc4)[nH]c23)CC1 [compound 2, (5-(1,1-dioxo-thiomorpholine-4-yl)methyl-2-phenyl-1H-indole-7-yl)-(1-methanesulfonyl-piperidine-4-yl)-amine]	well preserved	statistically significant (* P<0.05; Student's t-test) survival results						
O=S1(=O)CCN(Cc2cc(NCC3CCOCC3)c3[nH]c(-c4ccccc4)cc3c2)CC1 [compound 1, (tetrahydropyran-4-ylmethyl)-[2-phenyl-5-(1,1-dioxo-thiomorpholine-4-yl)methyl-1H-indole-7-yl]amine]			200	increased response in both a- and b-waves	close to a normal tissue; also recorded: well-aligned retinal structure	≤ 3	statistically significant (*** P<0.001) healing effect	completely restored

— US20150038500A1, “PHARMACEUTICAL COMPOSITION FOR PREVENTING AND TREATING OPHTHALMIC DISORDERS” (CATHOLIC UNIVERSITY INDUSTRY-ACADEMIC COOPERATION FOUNDATION, priority 2011, published 2015)
